Earlier results on one compound are cited in patent US9399652B2, “Synthetic route to pactamycin and pactamycin analogs” (The University of North Carolina at Chapel Hill, priority 2013, dated 2016).

The conditions of the data set: literature value (ref. 11); cell line not given; read-out: cytotoxicity (IC50).

Turning to `CC(=O)c1cccc(N[C@H]2[C@H](N)[C@@](NC(=O)N(C)C)([C@H](C)O)[C@@](C)(O)[C@@]2(O)COC(=O)c2c(C)cccc2O)c1` [Pactamycin], the IC50 is 95 nM.
